{"source": "patent US20260191853A1", "about": "“METHOD OF TREATING DRUG-INDUCED BRADYARRHYTHMIA” (OSAKA UNIVERSITY, priority 2022, published 2026)", "key": {"Hartley guinea pigs [1]": {"tested_on": "Hartley guinea pigs", "experiment": "Preventive effect on siponimod-induced bradyarrhythmia in isoflurane-anesthetized guinea pig model", "assay_type": "in vivo", "settings": "siponimod 0.01 mg/kg i.v. over 10 min, compound (I) non-administration group", "protocol": "A solvent or compound (I) (free form) was administered by oral gavage at a dose of 0.3. 1, or 3 mg/kg (volume: 5 mL/kg) to Hartley guinea pigs (7 to 10 weeks old, male, available from Japan SLC, Inc.). After completion of the administration, each animal was subjected to anesthetic induction by inhalation of isoflurane (available from Pfizer Japan Inc.), and the animal was held on an operating table having a heater function. The trachea was incised, and a tracheal cannula (KN-375, available from Natsume Seisakusho Co., Ltd.) was inserted. The tracheal cannula was connected to a ventilator (SN-480-7, available from Shinano Seisakusho Co., Ltd.), and artificial respiration was controlled by supplying 100% oxygen at a volume of 10 mL and a ventilation rate of 60 times/minute. The solvent used was 0.5 w/v % methyl cellulose 400 solution (available from FUJIFILM Wako Pure Chemical Corporation). Isoflurane (available from Pfizer Japan Inc.) anesthesia (about 1 to 4%, carrier gas: 100% oxygen) was used for maintenance of anesthesia. A catheter (BD intramedic polyethylene tubing PE50, available from Becton, Dickinson and Company) charged with 50 units/mL heparin (available from AY PHARMACEUTICALS CO., LTD.) was inserted into each of the carotid artery and the jugular vein and placed in the blood vessel. Systemic blood pressure was measured with a high-sensitivity DC amplifier (AD-611J, available from NIHON KOHDEN CORPORATION) via the catheter placed in the carotid artery. Electrodes were attached to the body surface, and a body surface electrocardiogram was measured with a high-sensitivity amplifier (AB-611J, available from NIHON KOHDEN CORPORATION). Blood pressure and electrocardiogram data were acquired and analyzed with PowerLab/Labchart system (available from ADInstruments). Analysis items are systolic blood pressure, diastolic blood pressure, average blood pressure, heart rate, P-wave width, PR interval, QRS width, QT interval, and corrected QT interval. Corrected QT interval was calculated using the Fridericia formula (QTc=QT interval/RR interval^1/3). After stabilization of each parameter, siponimod (synthesized according to WO 2017/120124) was continuously administered intravenously at 0.01 mg/kg for 10 minutes via the catheter placed in the jugular vein, followed by observation of the presence or absence of the onset of bradyarrhythmia for 60 minutes. The solvent used was a solution prepared by mixing of Polyethylene Glycol 400 (available from KANTO CHEMICAL CO., INC.) and dimethyl sulfoxide (available from FUJIFILM Wako Pure Chemical Corporation) at 9: 1 (volume ratio). Data were recorded and blood was collected 5, 10, 15, 20, 30, and 60 minutes after initiation of administration of siponimod. The observation was terminated 60 minutes after initiation of the administration, and the animal was euthanized by exsanguination or intravenous administration of a large amount of saturated potassium chloride solution under isoflurane anesthesia. Data were analyzed for atrial beating rate over time, ventricular beating rate over time, electrocardiographic parameters, the presence or absence of the onset of atrioventricular block, and plasma concentrations of compound (I) and siponimod. The plasma was collected by centrifuging the blood and cryopreserved at about −20° C. After thawing of the plasma, plasma drug concentrations were measured using LC/MS/MS after deproteinization with acetonitrile.\nIn FIG. 3, the measurements are shown as mean±standard error. Abbreviations, etc. are as follows. • (I): compound (I) • Atrioventricular block: the presence or absence of atrioventricular block • (x denotes second- or third-degree atrioventricular block) • PR & QRS: atrioventricular conduction time and ventricular activation time • QT & QTcF: ventricular repolarization time and heart rate-corrected ventricular repolarization time • Plasma concentration: the plasma concentration of siponimod or compound (I)"}, "[2]": {"tested_on": "human iPS cell-derived atrial myocytes", "experiment": "Siponimod-induced decrease in beating rate in human iPS cell-derived atrial myocytes (multi-electrode array)", "assay_type": "cell-based", "settings": "0.1 μM siponimod, observed 10 minutes", "protocol": "Cryopreserved human iPS cell-derived atrial myocytes (Human iPSC-derived atrial cardiomyocytes, available from Axol Bioscience) were thawed and seeded at 1,400,000 cells/well on a fibronectin-coated 6-well plate, followed by culturing in an incubator at 37° C. and 5% CO2 for 11 days. During the culture, the entire amount of medium was changed every other day. After the elapse of 11 days, human iPS cell-derived atrial myocytes that started beating were removed from the plate and recovered with TrypLE Select Enzyme (available from ThermoFisher Scientific). The atrial myocytes were seeded at 25,000 cells/2 μL on a fibronectin-coated 6-well MEA Chip (60-6well MEA200/30iR-Ti-tcr, available from Multi Channel Systems) and cultured in an incubator at 37° C. and 5% CO2 for one hour. Thereafter, 400 μL of medium was added and cultured in an incubator at 37° C. and 5% CO2 for 13 days. During the culture, a half amount of the medium was changed every other day. After the elapse of […], the MEA Chip was set in a multi-electrode array system (MEA2100, available from Multi Channel Systems) to thereby obtain extracellular potentials under spontaneous beating. […] Data were analyzed with Labchart System (available from ADInstruments).\nIn FIG. 6, the measurements are shown as mean±standard error, and (I) denotes compound (I)."}, "Hartley guinea pigs [3]": {"tested_on": "Hartley guinea pigs", "experiment": "Preventive effect on fingolimod-induced bradyarrhythmia in isoflurane-anesthetized guinea pig model", "assay_type": "in vivo", "settings": "fingolimod hydrochloride 0.1 mg/kg i.v. over 10 min, compound (I) non-administration group", "protocol": "A solvent or compound (I) (free form) was administered by oral gavage at a dose of 1, 3, or 10 mg/kg (volume: 5 mL/kg) to Hartley guinea pigs (7 to 10 weeks old, male, available from Japan SLC, Inc.). After completion of the administration, each animal was subjected to anesthetic induction by inhalation of isoflurane (available from Pfizer Japan Inc.), and the animal was held on an operating table having a heater function. The trachea was incised, and a tracheal cannula (KN-375, available from Natsume Seisakusho Co., Ltd.) was inserted. The tracheal cannula was connected to a ventilator (SN-480-7, available from Shinano Seisakusho Co., Ltd.), and artificial respiration was controlled by supplying 100% oxygen at a volume of 10 mL and a ventilation rate of 60 times/minute. The solvent used was 0.5 w/v % methyl cellulose 400 solution (available from FUJIFILM Wako Pure Chemical Corporation). Isoflurane (available from Pfizer Japan Inc.) anesthesia (about 1 to 4%, carrier gas: 100% oxygen) was used for maintenance of anesthesia. A catheter (BD intramedic polyethylene tubing PE50, available from Becton, Dickinson and Company) charged with 50 units/mL heparin (available from AY PHARMACEUTICALS CO., LTD.) was inserted into each of the carotid artery and the jugular vein and placed in the blood vessel. Systemic blood pressure was measured with a high-sensitivity DC amplifier (AD-611J, available from NIHON KOHDEN CORPORATION) via the catheter placed in the carotid artery. Electrodes were attached to the body surface, and a body surface electrocardiogram was measured with a high-sensitivity amplifier (AB-611J, available from NIHON KOHDEN CORPORATION). Blood pressure and electrocardiogram data were acquired and analyzed with PowerLab/Labchart system (available from ADInstruments). Analysis items are systolic blood pressure, diastolic blood pressure, average blood pressure, heart rate, P-wave width, PR interval, QRS width, QT interval, and corrected QT interval. Corrected QT interval was calculated using the fridericia formula (QTc=QT interval/RR interval^1/3). After stabilization of each parameter, fingolimod hydrochloride (synthesized with reference to WO 2000/027798) was continuously administered intravenously at 0.1 mg/kg for 10 minutes via the catheter placed in the jugular vein, followed by observation of the presence or absence of the onset of bradyarrhythmia for 60 minutes. The solvent used was saline (available from Otsuka Pharmaceutical Factory, Inc.). Data were recorded and blood was collected 5, 10, 15, 20, 30, and 60 minutes after initiation of administration of fingolimod hydrochloride. The observation was terminated 60 minutes after initiation of the administration, and the animal was euthanized by exsanguination or intravenous administration of a large amount of pentobarbital or saturated potassium chloride solution under isoflurane anesthesia. Data were analyzed for atrial beating rate over time, ventricular beating rate over time, electrocardiographic parameters, the presence or absence of the onset of atrioventricular block, and plasma concentrations of compound (I), fingolimod, and fingolimod phosphorylated form. The plasma was collected by centrifuging the blood and cryopreserved at about −20° C. After thawing of the plasma, plasma drug concentrations were measured using LC/MS/MS after deproteinization with acetonitrile.\nAtrioventricular block was defined as follows.\nSecond-degree atrioventricular block: atrial activation wave (P wave) is normal, which is followed by or not followed by ventricular activation wave (QRS wave).\nThird-degree atrioventricular block: there is no electrical conduction between the atrium and the ventricle, and atrial and ventricular activation waves are generated independently, resulting in atrioventricular dissociation.\nIn FIG. 1, the measurements are shown as mean±standard error. […]"}, "Hartley guinea pigs [4]": {"tested_on": "Hartley guinea pigs", "experiment": "Termination effect on fingolimod-induced bradyarrhythmia in isoflurane-anesthetized guinea pig model", "assay_type": "in vivo", "settings": "30 minutes after initiation of administration of 0.1 mg/kg i.v.; FIG. 5", "from_the_text": "Hartley guinea pigs (7 to 10 weeks old, male, available from Japan SLC, Inc.) were subjected to anesthetic induction by inhalation of isoflurane (available from Pfizer Japan Inc.), and each animal was held on an operating table having a heater function. The trachea was incised, and a tracheal cannula (KN-375, available from Natsume Seisakusho Co., Ltd.) was inserted. The tracheal cannula was connected to a ventilator (SN-480-7, available from Shinano Seisakusho Co., Ltd.), and artificial respiration was controlled by supplying 100% oxygen at a volume of 10 mL and a ventilation rate of 60 times/minute. Isoflurane (available from Pfizer Japan Inc.) anesthesia (about 1 to 4%, carrier gas: 100% oxygen) was used for maintenance of anesthesia. A catheter (BD intramedic polyethylene tubing PE50, available from Becton, Dickinson and Company) charged with 50 units/mL heparin (available from AY PHARMACEUTICALS CO., LTD.) was inserted into each of the carotid artery and the jugular vein and placed in the blood vessel. Systemic blood pressure was measured with a high-sensitivity DC amplifier (AD-611J, available from NIHON KOHDEN CORPORATION) via the catheter placed in the carotid artery. Electrodes were attached to the body surface, and a body surface electrocardiogram was measured with a high-sensitivity amplifier (AB-611J, available from NIHON KOHDEN CORPORATION). Blood pressure and electrocardiogram data were acquired and analyzed with PowerLab/Labchart system (available from ADInstruments). After stabilization of each parameter, fingolimod hydrochloride (available from Nissan Chemical Corporation) was continuously administered intravenously at 0.1 mg/kg for 10 minutes via the catheter placed in the jugular vein, followed by observation of the presence or absence of atrioventricular block. After confirmation that atrioventricular block continued for 10 minutes from the onset thereof, a solvent or compound (I) dihydrochloride was continuously administered intravenously at 0.1 mg/kg for 30 minutes, and the effect of terminating atrioventricular block was observed during the intravenous administration. The solvent used was saline (available from Otsuka Pharmaceutical Factory, Inc.). Data were recorded and blood was collected 10, 20, and 30 minutes after initiation of administration of compound (I) dihydrochloride and at the time of termination of atrioventricular block. The observation was terminated 30 minutes after initiation of the administration, and the animal was euthanized by exsanguination or intravenous administration of a large amount of saturated potassium chloride solution under isoflurane anesthesia. Data were analyzed for the presence or absence of the termination, the time required for the termination, and the plasma concentration of compound (I) at the time of termination. The plasma was collected by centrifuging the blood and cryopreserved at about −20° C. After thawing of the plasma, plasma drug concentrations were measured using LC/MS/MS after deproteinization with acetonitrile.\nIn Table 1, the measurements are shown as mean±standard error."}}, "note": "Counter-ions that a name gives are not always drawn."}
{"smiles": "CCc1cc(/C(C)=N/OCc2ccc(C3CCCCC3)c(C(F)(F)F)c2)ccc1CN1CC(C(=O)O)C1", "note": "[siponimod, reference compound]", "values": [{"measurement": "cases with siponimod-induced atrioventricular block", "setting": "Hartley guinea pigs [1]", "value": "three out of four"}, {"measurement": "beating rate after addition of siponimod (sinus bradycardia)", "setting": "[2]", "value": "≤ 50", "unit": "beats/minute"}]}
{"smiles": "CCCCCCCCc1ccc(CCC(N)(CO)CO)cc1", "note": "[fingolimod, reference compound]", "values": [{"measurement": "cases with fingolimod-induced atrioventricular block", "setting": "Hartley guinea pigs [3]", "value": "four out of four"}]}
{"smiles": "Cc1cc(CO)nc2cc3c(cc12)OC(C)(C)[C@H](O)[C@H]3NCCc1ccccc1", "note": "[compound (I) dihydrochloride]", "values": [{"measurement": "fingolimod-induced bradycardia (heart rate, electrocardiogram)", "setting": "Hartley guinea pigs [4]", "value": "completely recovered"}]}
